SMILES strings stand for the structures. “And” between values parts separate entries of the source, which are not always exact repeats. Equal values may be shown once.

For this assay, the system named is BDF1 mice, Adenocarcinoma 755 s.c., tumor weight T/C. In words: NCI In Vivo Anticancer Drug Screen. Data for tumor model Adenocarcinoma 755 (subcutaneous) in B6D2F1 (BDF1) mice. Conditions: endpoint: mean tumor weight, schedule: Q01DX011 (ip), higher = larger tumour. The essentials:
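Tumor-bearing mice receive test compound while controls get vehicle alone. Antitumor effect is scored from survival or tumor dimensions as a T/C quotient.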

Setting [1] is: dose: 25.0 mg/kg/injection, vehicle: methylcellulose (MC).
The mark [2] stands for this setting: dose: 50.0 mg/kg/injection, vehicle: saline.
The mark [3] stands for this setting: dose: 25.0 mg/kg/injection, vehicle: carboxymethylcellulose (CMC).

Usually T/C stands for the ratio of treated to control. For the molecule `CN(C)[C@@H]1C(=O)C(C(=O)NCNCCCC(=O)O)=C(O)[C@@]2(O)C(=O)C3=C(O)c4c(O)cccc4[C@@](C)(O)[C@H]3C[C@@H]12`, the T/C by setting is: (dose: 87.5 mg/kg/injection, vehicle: saline) 106 % of control and 115 % of control; (dose: 175.0 mg/kg/injection, vehicle: saline) 54 % of control and 78 % of control; (dose: 350.0 mg/kg/injection, vehicle: saline) 51 % of control and 52 % of control.

In the case of `CC(=O)C(CCC(=O)O)(CCC(=O)O)c1ccccc1`, the T/C by setting is: (dose: 30.0 mg/kg/injection, vehicle: other) 87 % of control; (dose: 60.0 mg/kg/injection, vehicle: other) 71 % of control; (dose: 120.0 mg/kg/injection, vehicle: other) 117 % of control; (dose: 240.0 mg/kg/injection, vehicle: other) 97 % of control.

On to `CCC1CN1P(=S)(N1CC1CC)N1CC1CC` (stereo not drawn), for which the T/C (dose: 28.0 mg/kg/injection, vehicle: saline) was 104 % of control; the T/C (dose: 56.0 mg/kg/injection, vehicle: saline) is 28 % of control; the T/C (dose: 113.0 mg/kg/injection, vehicle: saline) was 8 % of control.

With `CSc1ncnc2c1ncn2C1CCCS1` (stereo not drawn), the T/C reads like this: under setting [1], 61 % of control; (dose: 75.0 mg/kg/injection, vehicle: methylcellulose (MC)) 66 % of control; (dose: 225.0 mg/kg/injection, vehicle: methylcellulose (MC)) 54 % of control.

For `CN(C)[C@@H]1C(=O)C(C(=O)NCNC2(C(=O)O)CCCC2)=C(O)[C@@]2(O)C(=O)C3=C(O)c4c(O)cccc4[C@@](C)(O)[C@H]3C[C@@H]12`, the T/C is 77 % of control under setting [2]; 65 % of control (dose: 75.0 mg/kg/injection, vehicle: saline); 41 % of control (dose: 125.0 mg/kg/injection, vehicle: saline); 1 % of control (dose: 250.0 mg/kg/injection, vehicle: saline).

With `CCc1nc(N)nc(N)c1-c1ccc(Cl)cc1`, the T/C was 52 % of control (dose: 3.0 mg/kg/injection, vehicle: methylcellulose (MC)); 38 % of control (dose: 6.0 mg/kg/injection, vehicle: methylcellulose (MC)); 77 % of control (dose: 6.25 mg/kg/injection, vehicle: carboxymethylcellulose (CMC)); 82 % of control (dose: 11.85 mg/kg/injection, vehicle: carboxymethylcellulose (CMC)); 49 % of control (dose: 12.0 mg/kg/injection, vehicle: methylcellulose (MC)); 99 % of control (dose: 12.5 mg/kg/injection, vehicle: carboxymethylcellulose (CMC)). For the same molecule, the T/C (dose: 23.7 mg/kg/injection, vehicle: carboxymethylcellulose (CMC)) was 116 % of control; the T/C under setting [3] was 115 % of control; the T/C under setting [1] is 62 % of control; the T/C (dose: 47.4 mg/kg/injection, vehicle: carboxymethylcellulose (CMC)) is 105 % of control; the T/C (dose: 50.0 mg/kg/injection, vehicle: carboxymethylcellulose (CMC)) was 72 % of control; the T/C (dose: 50.0 mg/kg/injection, vehicle: methylcellulose (MC)) was 71 % of control. The T/C (dose: 62.5 mg/kg/injection, vehicle: methylcellulose (MC)) was 43 % of control.

As to `c1ccc2c3c(ccc2c1)Sc1ccc2ccccc2c1N3`, the T/C is, setting by setting: (dose: 27.5 mg/kg/injection, vehicle: methylcellulose (MC)) 73 % of control; (dose: 27.5 mg/kg/injection, vehicle: other) 108 % of control; (dose: 55.0 mg/kg/injection, vehicle: methylcellulose (MC)) 76 % of control; (dose: 55.0 mg/kg/injection, vehicle: other) 115 % of control; (dose: 110.0 mg/kg/injection, vehicle: methylcellulose (MC)) 58 % of control; (dose: 440.0 mg/kg/injection, vehicle: other) 64 % of control.

On to `CCCCn1cnc2c(SCc3ccccc3)nc(N)nc21`, for which the T/C was 31 % of control (dose: 7.81 mg/kg/injection, vehicle: methylcellulose (MC)); 2 % of control (dose: 15.62 mg/kg/injection, vehicle: methylcellulose (MC)); 1 % of control (dose: 31.25 mg/kg/injection, vehicle: methylcellulose (MC)).

Consider `COc1cc(C(=O)[O][Hg][CH2]C2COC([CH2][Hg][O]C(=O)c3cc(OC)c(OC)c(OC)c3)CO2)cc(OC)c1OC` (stereo not drawn), for which, under setting [3], the T/C is 61 % of control.

With `CCCCC(CCCC)(C(=O)OCC)C(=O)OCC`, the T/C is, setting by setting: (dose: 40.6 mg/kg/injection, vehicle: methylcellulose (MC)) 65 % of control; (dose: 81.25 mg/kg/injection, vehicle: methylcellulose (MC)) 63 % of control; (dose: 162.5 mg/kg/injection, vehicle: methylcellulose (MC)) 52 % of control.

As for `COC(C(O)C(O)C(O)C(O)CO)n1cnc2cncnc21` (stereo not drawn), the T/C reads like this: (dose: 19.0 mg/kg/injection, vehicle: carboxymethylcellulose (CMC)) 115 % of control; (dose: 57.0 mg/kg/injection, vehicle: carboxymethylcellulose (CMC)) 152 % of control.

Regarding `Cn1c(=O)c2[nH]c(/N=N/N3CCN(CCO)CC3)nc2n(C)c1=O`, the T/C was 119 % of control (dose: 75.0 mg/kg/injection, vehicle: other) and 92 % of control (dose: 225.0 mg/kg/injection, vehicle: other).

With `C=CCSc1ncnc2c1ncn2C1OC(CO)C(O)C1O` (stereo not drawn), the T/C (dose: 1.0 mg/kg/injection, vehicle: saline) was 63 % of control; the T/C (dose: 1.6 mg/kg/injection, vehicle: saline) is 82 % of control; the T/C (dose: 2.0 mg/kg/injection, vehicle: saline) was 112 % of control; the T/C (dose: 3.2 mg/kg/injection, vehicle: saline) is 119 % of control; the T/C (dose: 4.0 mg/kg/injection, vehicle: saline) is 50 % of control; the T/C (dose: 5.0 mg/kg/injection, vehicle: saline) is 75 % of control. Besides, the T/C is 40 % of control (dose: 6.3 mg/kg/injection, vehicle: saline); 16 % of control (dose: 7.0 mg/kg/injection, vehicle: saline); 38 % of control (dose: 10.0 mg/kg/injection, vehicle: saline); 42 % of control (dose: 12.5 mg/kg/injection, vehicle: saline); 2 % of control (dose: 13.0 mg/kg/injection, vehicle: saline); 8 % of control (dose: 20.0 mg/kg/injection, vehicle: saline). In addition, the T/C is 1 % of control and 19 % of control (dose: 25.0 mg/kg/injection, vehicle: saline); 1 % of control (dose: 40.0 mg/kg/injection, vehicle: saline); 18 % of control under setting [2]; 1 % of control (dose: 80.0 mg/kg/injection, vehicle: saline); 11 % of control (dose: 100.0 mg/kg/injection, vehicle: saline).

Consider `Cc1ccc2ccccc2c1CSc1ncnc2nc[nH]c12`, for which the T/C runs as follows: (dose: 10.0 mg/kg/injection, vehicle: methylcellulose (MC)) 38 % of control; (dose: 20.0 mg/kg/injection, vehicle: methylcellulose (MC)) 40 % of control; (dose: 40.0 mg/kg/injection, vehicle: methylcellulose (MC)) 11 % of control; (dose: 80.0 mg/kg/injection, vehicle: methylcellulose (MC)) 9 % of control.

The values above are taken from PubChem BioAssay AID180 (DTP/NCI, 2004).
